Results: patent publication US20230107216A1, “PANTETHEINE DERIVATIVES AND USES THEREOF” (Comet Therapeutics, Inc., priority 2018, published 2023)
Where two headings read alike, the source gives them in different places.

What was measured:
[1] = tested on: Methylmalonic Acidemia (MMA) primary fibroblasts GM01673; assay: Mitochondrial respiration, XFe96 Extracellular Flux Analyzer (OCR/ECAR), MMA fibroblasts GM01673; type: cell-based; settings: Homo sapiens, Fibroblast
Method: The effect of the compounds of the present disclosure on mitochondrial respiration was measured with a XFe96 Extracellular Flux Analyzer (Seahorse Bioscience, Agilent Technologies) and Oxygen consumption Rate (OCR) and Extracellular acidification rate (ECAR) determined.
Cell culture and treatments. Primary adherent fibroblasts were cultured in minimum essential medium (MEM) (Gibco, 25030081) supplemented with 2 mM L-Glutamine (Gibco, 25030081), 15% fetal bovine serum (FBS) (Gibco, 26400044) and 1% penicillin/streptomycin (Gibco, 5140122) at 37° C. and 5% CO2. Cells were collected for either passaging or experiment at ˜70-80% confluence. Cells were obtained by trypsinization and seeded at 20000 cells/well in cell culture microplates (Seahorse Bioscience, 101085-004) and allowed to adhere for 16 hours in culture media.
By profiling different primary cells and/or optimizing their culture media or environmental components one can select cell lines and/or conditions that are appropriate for the biological or disease model. In the present example, 24 hours prior to OCR and ECAR profiling, media was changed to Dulbecco's Modified Eagle Medium (DMEM, Agilent Seahorse 103575-100) with the appropriate supplements for the different primary cells (10 mM glucose, 2 mM L-glutamine, 1 mM pyruvate, 10% FBS; 1 mM glucose, 2 mM L-glutamine, 1 mM pyruvate, 10% FBS; 10 mM glucose, 10% FBS; 5 mM glucose 10% FBS; 1 mM glucose 10% FBS). Cells used in this example were: Propionic Acidemia (PA) (GM00371, GM03590 Coriell Institute for Medical Research, Tsi 6337, Tsi 4626, Tsi 3618 Trans-Hit Bio), Methylmalonic Acidemia (MMA) (GM01673, Coriell Institute for Medical Research, Tsi 5224 Trans-Hit Bio), Branched chain ketoacid dehydrogenase kinase (BCKDK) (GM00612, GM00649 Coriell Institute for Medical Research), Subnormal activation of pyruvate dehydrogenase complex (PDH) (GM01503 Coriell Institute for Medical Research), Very long-chain acyl-CoA dehydrogenase (VLCAD) (GM17475), Leigh Syndrome (LS) (GM03672, GM13411 Coriell Institute for Medical Research), Pyruvate Carboxylase Deficiency (PC) (GM00444 Coriell Institute for Medical Research), Glutaric Acidemia-I (GA) (GM10653), Friedreich's Ataxia (FXN) (GM04078 Coriell Institute for Medical Research, Huntington's disease (HD) (GM21756 Coriell Institute for Medical Research), Ornithine Transcarbamylase Deficiency (OTC) (GM12756 Coriell Institute for Medical Research), Kearns-Sayre Syndrome (KSS) (GM06225 Coriell Institute for Medical Research).
One hour before the assay, the cells were washed with freshly prepared unbuffered serum free-Seahorse XF Assay medium (Seahorse Bioscience, North America, USA, 103575-100) with the same supplements as for the previous 24 hour incubation.
After baseline measurements of OCR, cells were challenged with compounds of the present disclosure at different concentrations (10 to 50 μM) or vehicle (DMSO, 0.1%) and a post-compound baseline was recorded. OCR was measured after sequentially adding to each well 1 μg/ml oligomycin (inhibitor of ATP synthase Sigma-Aldrich, 753531), then maximal OCR was determined with carbonyl cyanide 4-(trifluoromethoxy) phenylhydrazone (FCCP, Sigma-Aldrich, C2920), (uncoupler of oxidative phosphorylation) and 0.5 μM of rotenone (Sigma-Aldrich, R8875) plus antimycin A (Sigma-Aldrich, A8674) (inhibitors of mitochondrial complex I and III) for determination of rotenone-antimycin insensitive respiration together with Hoechst for nuclear staining in situ when normalized to cell counts. After the analysis and nuclear staining, the XFp microplate was transferred to the Cytation 5, and the nuclear images were captured, the individual nuclei were identified and counted by BioTek Gen5 software. Data were expressed as pmol of O2 per minute and normalized by nuclear staining and baselined to pre-compound addition.
Assay conditions were as stated below.
Assay specifics on assay conditions are indicated below when readouts were normalized to cell counts. […]

[2] = tested on: Propionic Acidemia (PA) primary fibroblasts GM00371; assay: Mitochondrial respiration, XFe96 Extracellular Flux Analyzer (OCR/ECAR), PA fibroblasts GM00371; type: cell-based; settings: Homo sapiens, Fibroblast, 50 μM, read-out: Increase in Maximal Respiratory Capacity AUC
[3] = tested on: primary fibroblasts (healthy controls and PA, MMA, BCKDK, PDH, VLCAD, LS, PC, GA, VLCFA, KSS, FXN, HD); assay: Measurement of ROS (H2DCFDA) in primary fibroblasts; type: cell-based, human; settings: Homo sapiens, Fibroblast, PC GM00444, procedure Example 812, Assay Condition C
Method in brief: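 Patient and healthy-control primary fibroblasts switched to supplemented DMEM 24 h before assay, then treated with compound (10 μM) plus H2DCFDA (22 μM) for 2 h (PA, MMA lines) or 24 h (other lines). Kinetic fluorescence at 492/527 nm over 60 min; only live cells analysed.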

[4] = tested on: Peripheral blood mononuclear cells co-cultured with venular endothelial cells (HUVEC) (LPS system); assay: BioMAP LPS system; type: cell-based, human; settings: Homo sapiens, HUVEC, 24 h, procedure of Example 827
[5] = tested on: Dermal fibroblasts (HDF3CGF system); assay: BioMAP HDF3CGF system (IL-1β, TNFα, IFNγ, EGF, bFGF, PDGF-BB); type: cell-based, human; settings: 10 uM
[6] = tested on: primary culture of rat embryo mesencephalic cells (microglia, astrocytes and neurons) exposed to LPS; assay: Neuroprotective effect on damage induced by LPS on culture of mesencephalic neurons (NO, TNF-α, IL-1β, TH positive neurons); type: cell-based; settings: 50 uM, after 5 days of LPS exposure; for inhibition at 50 µM: Rattus norvegicus, Neuron, 120 h, read-out: % reversion of TH positive neurons
Method: Drug preparation. […] The stock solutions will be prepared 1000× the concentration in 100% DMSO. The final concentration of the vehicle (DMSO) is set at 0.1%.
Test animals. Pregnant Wistar rats (Janvier; France) are used for the study. They are group-housed and maintained in a room with controlled temperature (21-22° C.) and a reversed light-dark cycle (12h/12h; lights on: 17:30-05:30; lights off: 05:30-17:30) with food and water available ad libitum.
The protocol is performed in 3 independent cultures. For each culture, each condition is performed in sextuplicate.
Female rat of 15 days gestation is killed by cervical dislocation. Fetuses are removed from the uterus and their brains are harvested and placed in ice-cold medium (Leibovitz's L15 medium, Gibco). Only ventral mesencephalic flexure is used for the cell preparations. The midbrain is dissociated by trypsinization. The reaction is stopped, and the suspension is triturated and centrifuged. The pellet of dissociated cells is resuspended in culture medium consisted of DMEM-F12 (Gibco), containing 10% FBS (ATCC), 10% Horse serum (Gibco) and 2 mM L-glutamine (Gibco). Viable cells are counted and seeded on 96-well plates, precoated with poly-L-lysine. Cells are maintained in a humidified incubator at 37° C. in 5% CO2-95% air atmosphere. Half of the medium is changed on day 2 and day 5.
Treatment. On day 7, culture media are removed and replaced by new medium consisting of DMEM-F12 (Gibco) supplemented with 2% FBS (ATCC), 2% Horse serum (Gibco) and 2 mM L-glutamine (Gibco) and containing vehicle or test substances. After 1-hour exposure, LPS at 10 ng/ml is added and exposure further continued for 24 hours or 5 days period.
Inflammatory response measurement and neuronal death evaluation. NO production is measured in the media 24h and 5 days after LPS exposure using the Griess reagent kit (Molecular Probes). The Griess reagent Assay is a colorimetric reaction assay which measures the conversion of a sulfanilic salt into an azo dye product by nitrite. Visible wavelength absorbance data is collected using a 96-well plate reader at 570 nm (Multiskan EX, Thermo Fisher, France). IL-1β and TNF-α release are measured in the media 24h after LPS exposure using the ELISA development kit (PeproTech). The ELISA plate, previously coated with anti-IL-1β or anti-TNF-αantibody at 1 μg/ml, is incubated 1h with PBS containing 1% of BSA (bovine serum albumin). After washing four times with PBS containing 0.05% of Tween-20, the plate is successively incubated 2h with supernatant, 2h with biotinylated antibody at 0.5 μg/ml in PBS containing 0.1% of BSA and 0.05% of Tween-20, 45 min with Avidin-HRP conjugated at 1/2000 and 30 min with color ABTS substrate (Sigma). Visible wavelength absorbance data is collected using a 96-well plate reader at 405 nm with wavelength correction set at 650 nm (Multiskan EX, Thermo Fisher, France).
Immunodetection of tyrosine hydroxylase positive neurons. On day 12 (5 days after LPS exposure), cultures are fixed 30 min at 4° C. with paraformaldehyde in PBS (4%, Sigma). Then, cells are successively permeabilized with 0.1% Triton X100 for 30 min, saturated with PBS containing 3% of BSA (bovine serum albumin) and are incubated 2h with anti-tyrosine hydroxylase antibody (Sigma, 1:10000; clone TH-2) at 1/10 000 in PBS containing 0.5% of BSA. Cells are washed three times with PBS containing 0.5% of BSA, and they are incubated 1h with goat anti mouse antibody coupled with AF488 (Invitrogen A11001) diluted at 1/1000 in PBS containing 0.5% of BSA. Finally, nuclei are stained with DAPI at 1/1000 in PBS containing 0.5% of BSA. After rinsing with PBS, the plate is visualized and examined with Cell Insight HCS (Thermo Scientific) to determine the number of tyrosine hydroxylase positive cells per well.
Statistical Analysis. The drug-induced effect on NO and cytokines is calculated by setting the response of the LPS-stimulated control as 100%. […]

[7] = tested on: Bronchial epithelial cells (BE3C system); assay: BioMAP BE3C system (IL-1β, TNFα, IFNγ); type: cell-based, human; settings: Homo sapiens, Epithelial cell, 24 h; 10 uM; procedure of Example 831; read-out: % decrease in MMP-1
[8] = tested on: Peripheral blood mononuclear cells co-cultured with B-cells (BT system); assay: cells; settings: Homo sapiens, 72 h, read-out: % increase in sIL-6
[9] = tested on: Bronchial epithelial cells co-cultured with dermal fibroblast (BF4T system); assay: BioMAP BF4T system (TNFα and IL-4); type: cell-based, human; settings: Homo sapiens, 24 h; 10 uM; procedure of Example 830; read-out: % increase in VCAM-1
[10] = tested on: Peripheral blood mononuclear cells co-cultured with B-cells (BT system)
HepG2 cells = assay: Glucose uptake (Glucose Uptake-Glo); type: cell-based; settings: Homo sapiens, 50 uM, read-out: % increase in Glucose Uptake
[11] = tested on: Venular Endothelial cells (HUVEC) (4H system); assay: BioMAP 4H system (IL-4 and histamine); type: cell-based, human; settings: Homo sapiens, HUVEC, 24 h; 1 uM; procedure of Example 826; read-out: % decrease in E-Selectin
[12] = assay condition A (10 mM glucose, 2 mM L-glutamine, 1 mM pyruvate, 10% FBS), read-out: Increase in Maximal Respiratory Capacity AUC

COC(=O)CC(SCCNC(=O)CCNC(=O)[C@H](O)C(C)(C)COC(=O)CN)C(=O)OC (stereo partly shown) [Compound 172]
activation at 10 µM [1, 12]: ≥ 10%
activation at 10 µM ([1]; assay condition D (1 mM glucose, 10% FBS), read-out: Increase in Maximal Respiratory Capacity AUC): ≥ 10%
activation at 50 µM ([2]; assay condition A (10 mM glucose, 2 mM L-glutamine, 1 mM pyruvate, 10% FBS)): ≥ 10%

CC(C)(CO)[C@@H](O)C(=O)NCCC(=O)NCCSC(=O)CC(=O)N[C@@H](CCCCN)C(=O)O [Compound 485]
activation at 50 µM [1, 12]: ≥ 10%

CC(=O)N[C@@H](CC(=O)CC(=O)SCCNC(=O)CCNC(=O)[C@H](O)C(C)(C)CO)C(=O)O [Compound 447]
activation at 50 µM [1, 12]: ≥ 10%

CC(C)(CO)[C@@H](O)C(=O)NCCC(=O)NCCSC(=O)CC[C@H](N)C(=O)O [Compound 385, (S)-2-amino-5-((2-(3-((R)-2,4-dihydroxy-3,3-dimethylbutanamido)propanamido)ethyl)thio)-5-oxopentanoic acid]
activation at 10 µM ([1]; assay condition A (10 mM glucose, 2 mM L-glutamine, 1 mM pyruvate, 10% FBS), read-out: Increase in Spare Capacity AUC): ≥ 10%
activation at 50 µM ([2]; assay condition D (1 mM glucose, 10% FBS)): ≥ 10%
inhibition at 10 µM ([3]; read-out: Decreased ROS by at least 10%): ≥ 10%
inhibition at 10 µM ([3]; read-out: Decreased ROS by at least 30%): ≥ 30%

CC(=O)CC(=O)SCCNC(=O)CCNC(=O)[C@H](O)C(C)(C)COC(=O)O[C@H](CC(=O)[O-])C[N+](C)(C)C [Compound 185, (3R,9R)-9-hydroxy-8,8-dimethyl-5,10,14,19,21-pentaoxo-3-((trimethylammonio)methyl)-4,6-dioxa-18-thia-11,15-diazadocosanoate]
inhibition at 1 µM ([4]; 1 uM, read-out: % decrease in sPGE2): ≥ 10%
inhibition at 10 µM ([4]; 10 uM, read-out: % decrease in IL-1α): ≥ 10%
activation at 10 µM ([4]; 10 uM, read-out: % increase in sTNFα): ≥ 10%
% increase in SRB [5]: ≥10%
activation at 10 µM ([5]; Homo sapiens, Fibroblast, 72 h, read-out: % increase in 72 Hour Proliferation): ≥ 10%
% decrease in NO release relative to LPS alone [6]: ≥20%
inhibition at 50 µM ([6]; list at threshold 15%): ≥ 15%
inhibition at 50 µM ([6]; list at threshold 50%): ≥ 50%
inhibition at 10 µM [7]: ≥ 10%
activation at 50 µM ([2]; assay condition C (10 mM glucose, 10% FBS)): ≥ 10%
activation at 1 µM [8]: ≥ 10%
activation at 10 µM [9]: ≥ 10%
% increase in B-cell Proliferation ([10]; 1 uM, procedure of Example 829): ≥10%
% increase in PBMC cytotoxicity ([10]; human, 72 h, 1 µM): ≥10%
activation at 50 µM (HepG2 cells): ≥ 30%
inhibition at 1 µM [11]: ≥ 10%
